Where a name gives a salt, the structure may show the parent alone.
Columns and labels:
Assay type in all cases: cell-based
[1] = biological target: T1, SMARCA2 (Homo sapiens, UniProt P51531); assay: SMARCA2 degradation in MV-4-11 cells by Western blot; details: MV4-11, 16 h, at 100 nM, vs DMSO, read-out: Percent degradation SMARCA2
T1 construct: endogenous in cells; host or cells: MV-4-11 (CRL-9591)
Protocol: (§1) Example-P3: Determination of SMARCA2 and SMARCA4 Degradation in MV-4-11 Cells by Western Blot
(§2) MV-4-11 (CRL-9591™) cells were plated in 6 well plates using complete Iscove's Modified Dulbecco's Medium. On the third day, compounds of present invention were added to cells from 10 mM stocks made in DMSO (Sigma Cat no. D2650). Each concentration of compound was tested with DMSO not exceeding final percentage of 0.1 in the cells. Cells were incubated with the compound for 16 hours followed by harvesting with 1×RIPA lysis buffer (Thermo Fischer, catalogue number #89900) containing protease inhibitor cocktail (Sigma catalogue number #P-8340). Equal amount of protein was loaded on SDS PAGE gel for electrophoresis. Western blot was carried out for detection of either SMARCA2 (Cell signalling technologies, catalogue number #11966) or SMARCA4 antibody (Cell signalling technologies, catalogue number #52251). Beta-Tubulin antibody (Cell signalling technologies, catalogue number #86298) was used as loading control. Percentage of SMARCA2 or SMARCA4 degradation was calculated using formula % Degradation=100−(normalized band intensity in treated sample/normalized band intensity in DMSO sample)*100. Here, “ND” refers to Not determined.

[2] = biological target: T2, SMARCA4 (Homo sapiens, UniProt P51532); assay: SMARCA4 degradation in MV-4-11 cells by Western blot; details: MV4-11, at 100 nM, 16 hours, vs DMSO, read-out: Percent degradation SMARCA4
T2 construct: endogenous in cells; host or cells: MV-4-11 (CRL-9591)
Protocol: as §1, §2

[3] = system: MV-4-11 cells; assay: Anti proliferative activity in MV-4-11 cells by Cell Titer Glo (Promega) assay; details: Homo sapiens, MV4-11, 72 h, 3 days, CellTiter-Glo
Method in brief: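 MV-4-11 cells in complete DMEM were exposed to compound for 3 days in triplicate, final DMSO ≤0.3%. Viability was read by CellTiter-Glo ATP luminescence, and % inhibition was taken relative to the DMSO control. EC50 was derived from concentration-response curves.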

[4] = system: SK-MEL-5 cells; assay: Anti proliferative activity in SK-MEL-5 cells by Cell Titer Glo (Promega) assay; details: Homo sapiens, retreatment on Day 4, terminated on day 8, CellTiter-Glo
Method in brief: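 SK-MEL-5 cells treated with 9-point 3-fold dilution series, re-dosed on day 4, read on day 8 by CellTiter-Glo luminescence. EC50 derived from percent proliferation inhibition versus concentration.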

T1 sequence (P51531 whole entry): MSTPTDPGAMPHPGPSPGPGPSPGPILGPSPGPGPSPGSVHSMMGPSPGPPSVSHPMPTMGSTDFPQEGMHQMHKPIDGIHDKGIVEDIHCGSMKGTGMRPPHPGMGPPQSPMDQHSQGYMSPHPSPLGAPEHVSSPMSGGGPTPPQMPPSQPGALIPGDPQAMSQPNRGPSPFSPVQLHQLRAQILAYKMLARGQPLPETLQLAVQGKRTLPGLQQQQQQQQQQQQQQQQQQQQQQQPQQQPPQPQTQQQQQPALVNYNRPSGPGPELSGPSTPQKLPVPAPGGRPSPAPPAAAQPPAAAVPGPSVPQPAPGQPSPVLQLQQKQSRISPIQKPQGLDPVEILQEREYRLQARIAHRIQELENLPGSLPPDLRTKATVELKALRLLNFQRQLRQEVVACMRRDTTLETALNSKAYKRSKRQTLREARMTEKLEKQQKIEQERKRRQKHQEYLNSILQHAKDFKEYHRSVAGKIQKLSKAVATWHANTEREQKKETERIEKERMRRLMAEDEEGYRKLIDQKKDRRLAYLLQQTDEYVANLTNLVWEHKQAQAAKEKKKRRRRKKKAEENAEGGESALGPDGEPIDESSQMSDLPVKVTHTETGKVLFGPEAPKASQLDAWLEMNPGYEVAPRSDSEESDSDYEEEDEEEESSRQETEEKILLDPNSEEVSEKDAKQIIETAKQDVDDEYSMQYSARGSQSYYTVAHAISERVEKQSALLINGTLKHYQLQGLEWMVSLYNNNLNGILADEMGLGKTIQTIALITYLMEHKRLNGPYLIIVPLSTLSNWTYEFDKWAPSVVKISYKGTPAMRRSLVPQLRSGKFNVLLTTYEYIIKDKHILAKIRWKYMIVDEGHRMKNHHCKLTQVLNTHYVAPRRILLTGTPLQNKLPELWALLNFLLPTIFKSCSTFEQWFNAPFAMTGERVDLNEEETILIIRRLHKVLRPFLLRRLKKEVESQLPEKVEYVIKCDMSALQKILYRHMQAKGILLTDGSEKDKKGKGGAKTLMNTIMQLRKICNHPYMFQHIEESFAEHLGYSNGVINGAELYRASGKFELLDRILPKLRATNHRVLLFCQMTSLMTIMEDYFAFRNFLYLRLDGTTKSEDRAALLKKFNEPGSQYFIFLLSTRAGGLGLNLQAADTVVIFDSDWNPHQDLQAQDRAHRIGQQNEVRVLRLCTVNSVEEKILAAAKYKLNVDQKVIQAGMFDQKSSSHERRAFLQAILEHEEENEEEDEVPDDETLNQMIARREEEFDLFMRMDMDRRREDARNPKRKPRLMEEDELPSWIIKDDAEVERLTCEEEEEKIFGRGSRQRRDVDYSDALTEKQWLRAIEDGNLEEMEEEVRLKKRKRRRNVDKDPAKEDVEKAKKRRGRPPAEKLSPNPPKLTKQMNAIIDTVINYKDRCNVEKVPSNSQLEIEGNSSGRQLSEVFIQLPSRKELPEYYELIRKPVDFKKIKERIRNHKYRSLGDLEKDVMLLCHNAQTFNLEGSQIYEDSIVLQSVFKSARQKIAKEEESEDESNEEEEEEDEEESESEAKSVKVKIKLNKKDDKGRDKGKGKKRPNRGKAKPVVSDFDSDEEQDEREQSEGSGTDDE
T2 sequence (P51532 whole entry): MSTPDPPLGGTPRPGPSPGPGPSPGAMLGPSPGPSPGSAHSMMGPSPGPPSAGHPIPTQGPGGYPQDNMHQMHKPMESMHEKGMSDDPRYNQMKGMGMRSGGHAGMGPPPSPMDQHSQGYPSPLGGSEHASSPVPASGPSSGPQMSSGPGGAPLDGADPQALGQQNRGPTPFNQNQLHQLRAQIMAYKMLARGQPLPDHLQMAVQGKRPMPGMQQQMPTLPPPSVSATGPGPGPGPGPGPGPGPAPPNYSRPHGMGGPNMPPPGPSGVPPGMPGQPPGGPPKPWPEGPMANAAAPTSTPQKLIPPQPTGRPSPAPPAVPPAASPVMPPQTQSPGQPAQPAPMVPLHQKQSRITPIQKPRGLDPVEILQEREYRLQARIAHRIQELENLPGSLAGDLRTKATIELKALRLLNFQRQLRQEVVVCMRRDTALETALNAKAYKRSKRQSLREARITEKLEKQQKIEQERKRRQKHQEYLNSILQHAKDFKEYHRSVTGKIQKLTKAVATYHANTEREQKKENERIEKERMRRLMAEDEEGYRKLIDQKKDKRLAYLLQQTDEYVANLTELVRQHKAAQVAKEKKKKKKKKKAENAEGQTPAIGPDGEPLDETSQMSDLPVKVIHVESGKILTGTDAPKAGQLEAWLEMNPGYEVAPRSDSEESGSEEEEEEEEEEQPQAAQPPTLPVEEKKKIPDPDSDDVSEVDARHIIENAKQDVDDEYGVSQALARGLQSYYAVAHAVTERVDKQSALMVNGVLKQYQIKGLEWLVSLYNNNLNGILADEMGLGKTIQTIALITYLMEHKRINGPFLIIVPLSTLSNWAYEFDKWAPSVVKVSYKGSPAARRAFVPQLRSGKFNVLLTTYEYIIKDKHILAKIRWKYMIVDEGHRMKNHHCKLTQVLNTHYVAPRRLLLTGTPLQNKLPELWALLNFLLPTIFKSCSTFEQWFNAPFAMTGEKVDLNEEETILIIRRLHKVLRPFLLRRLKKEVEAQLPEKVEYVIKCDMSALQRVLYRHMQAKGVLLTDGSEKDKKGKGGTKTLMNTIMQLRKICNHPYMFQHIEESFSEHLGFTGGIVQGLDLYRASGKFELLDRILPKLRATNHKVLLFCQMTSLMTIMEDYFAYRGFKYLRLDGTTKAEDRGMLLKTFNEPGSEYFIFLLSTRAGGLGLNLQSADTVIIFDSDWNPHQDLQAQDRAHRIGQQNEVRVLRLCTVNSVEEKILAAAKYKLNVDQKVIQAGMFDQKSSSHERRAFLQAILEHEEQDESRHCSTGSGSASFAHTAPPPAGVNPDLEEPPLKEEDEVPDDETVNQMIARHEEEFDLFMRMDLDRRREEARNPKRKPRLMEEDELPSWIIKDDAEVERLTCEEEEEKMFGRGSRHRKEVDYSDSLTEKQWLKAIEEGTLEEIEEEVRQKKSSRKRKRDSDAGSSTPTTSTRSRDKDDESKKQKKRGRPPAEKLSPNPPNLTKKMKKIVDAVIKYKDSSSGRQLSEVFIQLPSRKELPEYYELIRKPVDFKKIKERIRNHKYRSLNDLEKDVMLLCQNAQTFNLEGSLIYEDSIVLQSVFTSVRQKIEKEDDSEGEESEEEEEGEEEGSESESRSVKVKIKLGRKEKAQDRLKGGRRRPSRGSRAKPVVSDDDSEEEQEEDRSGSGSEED

Structure (SMILES) | inhibition at 0.1 µM [1] | inhibition at 0.1 µM [2] | EC50 [3] | EC50 [4]
O=C1CCC(Nc2ccc(C3CCN(C4CCN(c5ccc6c(c5)n(C5CCCC5)c5nc(=O)c7c(Cl)cccc7n65)CC4)CC3)c(F)c2)C(=O)N1 (centres unmarked) [Compound 23, 3-((4-(1′-(4-chloro-7-cyclopentyl-5-oxo-5,7-dihydrobenzo[4,5]imidazo[1,2-a]quinazolin-9-yl)-[1,4′-bipiperidin]-4-yl)-3-fluorophenyl)amino)piperidine-2,6-dione-HCl salt] | 99% | 98% | < 10 nM | < 10 nM
Nc1cccc2c1c(=O)nc1n(C3CCCC3)c3cc(N4CCC(N5CCN(c6ccc(C7CCC(=O)NC7=O)cc6)CC5)CC4)ccc3n21 (centres unmarked) [Compound 26, 3-(4-(4-(1-(4-amino-7-cyclopentyl-5-oxo-5,7-dihydrobenzo[4,5]imidazo[1,2-a]quinazolin-9-yl)piperidin-4-yl)piperazin-1-yl)phenyl)piperidine-2,6-dione-HCl salt] | 68% | 33% | > 100 nM | 10 to 100 nM
O=C1CCC(N2Cc3cc(N4CCN(C5CCN(c6ccc7c(c6)n(C6CCCC6)c6nc(=O)c8c(Cl)cccc8n76)CC5)CC4)ccc3C2=O)C(=O)N1 (centres unmarked) [Compound 30, 3-(5-(4-(1-(4-chloro-7-cyclopentyl-5-oxo-5,7-dihydrobenzo[4,5]imidazo[1,2-a]quinazolin-9-yl)piperidin-4-yl)piperazin-1-yl)-1-oxoisoindolin-2-yl)piperidine-2,6-dione-HCl salt] | 90% | 64% | > 100 nM | < 10 nM
Cn1c2cc(N3CCC(N4CCN(c5ccc(C6CCC(=O)NC6=O)cc5)CC4)CC3)ccc2n2c3cccc(N)c3c(=O)nc12 (centres unmarked) [Compound 32, 3-(4-(4-(1-(4-amino-7-methyl-5-oxo-5,7-dihydrobenzo[4,5]imidazo[1,2-a]quinazolin-9-yl)piperidin-4-yl)piperazin-1-yl)phenyl)piperidine-2,6-dione-HCl salt] | 59% | 38% | > 100 nM | > 100 nM
O=C1CCC(Nc2ccc(N3CCN(C4CCN(c5ccc6c(c5)n(C5CCCC5)c5nc(=O)c7c(Cl)cccc7n65)CC4)CC3)c(F)c2)C(=O)N1 (centres unmarked) [Compound 35, 3-((4-(4-(1-(4-chloro-7-cyclopentyl-5-oxo-5,7-dihydrobenzo[4,5]imidazo[1,2-a]quinazolin-9-yl)piperidin-4-yl)piperazin-1-y1)-3-fluorophenyl)amino)piperidine-2,6-dione-TFA salt] | 98% | 91% | > 100 nM | < 10 nM

Other lines, results leading:

inhibition at 0.1 µM [1] | inhibition at 0.1 µM [2] | EC50 [3] | EC50 [4] | Structure (SMILES)
67% | 33% | 10 to 100 nM | < 10 nM | Nc1cccc2c1c(=O)nc1n(C3CCCC3)c3cc(N4CCC(N5CCC(c6ccc(C7CCC(=O)NC7=O)cc6)CC5)CC4)ccc3n21 (centres unmarked) [Compound 25, 3-(4-(1′-(4-amino-7-cyclopentyl-5-oxo-5,7-dihydrobenzo[4,5]imidazo[1,2-a]quinazolin-9-yl)-[1,4′-bipiperidin]-4-yl)phenyl)piperidine-2,6-dione-HCl salt]
96% | 97% | < 10 nM | < 10 nM | CC(C)n1c2cc(N3CCC(N4CCC(c5ccc(NC6CCC(=O)NC6=O)cc5F)CC4)CC3)ccc2n2c3cccc(Cl)c3c(=O)nc12 (centres unmarked) [Compound 29, 3-((4-(1′-(4-chloro-7-isopropyl-5-oxo-5,7-dihydrobenzo[4,5]imidazo[1,2-a]quinazolin-9-yl)-[1,4′-bipiperidin]-4-yl)-3-fluorophenyl)amino)piperidine-2,6-dione-HCl salt]
99% | 97% | > 100 nM | < 10 nM | Cn1c2cc(N3CCC(N4CCC(c5ccc(NC6CCC(=O)NC6=O)cc5F)CC4)CC3)ccc2n2c3cccc(Cl)c3c(=O)nc12 (centres unmarked) [Compound 36, 3-((4-(1′-(4-chloro-7-methyl-5-oxo-5,7-dihydrobenzo[4,5]imidazo[1,2-a]quinazolin-9-yl)-[1,4′-bipiperidin]-4-yl)-3-fluorophenyl)amino)piperidine-2,6-dione]

— patent US20260297094A1, “Tetracyclic Compounds as SMARCA2 and/or SMARCA4 Degraders” (Aurigene Oncology Limited, priority 2023, published 2026)
